Experiments:
hCA VA = hCA VA (Homo sapiens, UniProt P35218); test: Stopped flow CO2 hydrase assay, hCA VA
Experimental: (§1) An Applied Photophysics stopped-flow instrument has been used for assaying the CA-catalysed CO2 hydration activity[11]. […] The uncatalysed rates were determined in the same manner and subtracted from the total observed rates. Stock solutions of inhibitor (0.1 mM) were prepared in distilled-deionised water and dilutions up to 0.01 nM were done thereafter with the assay buffer. […] The inhibition constants were obtained by non-linear least-squares methods using PRISM 3 and the Cheng–Prusoff equation, as reported earlier[12]^,[13] and represent the mean from at least three different determinations.

hCA XIV = hCA XIV (Homo sapiens, UniProt Q9ULX7); test: Stopped flow CO2 hydrase assay, hCA XIV
Experimental: as §1

hCA IX = hCA IX (Homo sapiens, UniProt Q16790); test: Stopped flow CO2 hydrase assay, hCA IX
Experimental: as §1

hCA VB = hCA VB (Homo sapiens, UniProt Q9Y2D0); test: Stopped flow CO2 hydrase assay, hCA VB
Experimental: as §1

hCA III = hCA III (Homo sapiens, UniProt P07451); test: Stopped flow CO2 hydrase assay, hCA III
Experimental: as §1

hCA XIII = hCA XIII (Homo sapiens, UniProt Q8N1Q1); test: Stopped flow CO2 hydrase assay, hCA XIII
Experimental: as §1

hCA IV = hCA IV (Homo sapiens, UniProt P22748); test: Stopped flow CO2 hydrase assay, hCA IV
Experimental: as §1

hCA VII = hCA VII (Homo sapiens, UniProt P43166); test: Stopped flow CO2 hydrase assay, hCA VII
Experimental: as §1

[1] = parameters: method as in PMID 28940154; conditions: cited from earlier work
hCA VI = hCA VI (Homo sapiens, UniProt P23280); test: Stopped flow CO2 hydrase assay, hCA VI
Experimental: as §1

hCA II = hCA II (Homo sapiens, UniProt P00918); test: Stopped flow CO2 hydrase assay, hCA II
Experimental: as §1

hCA I = hCA I (Homo sapiens, UniProt P00915); test: Stopped flow CO2 hydrase assay, hCA I
Experimental: as §1

hCA XII = hCA XII (Homo sapiens, UniProt O43570); test: Stopped flow CO2 hydrase assay, hCA XII
Experimental: as §1

HIV = conditions: compared to efavirenz, cited from earlier work

Sequence of hCA VII (P43166 whole entry): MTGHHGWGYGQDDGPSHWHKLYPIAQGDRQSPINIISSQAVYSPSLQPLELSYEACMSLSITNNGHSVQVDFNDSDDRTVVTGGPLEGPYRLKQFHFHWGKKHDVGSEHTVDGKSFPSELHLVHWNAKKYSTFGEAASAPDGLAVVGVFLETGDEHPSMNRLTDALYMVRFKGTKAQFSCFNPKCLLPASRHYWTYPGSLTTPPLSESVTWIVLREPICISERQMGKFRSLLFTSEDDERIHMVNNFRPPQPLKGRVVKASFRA
Sequence of hCA IV (P22748 19-312): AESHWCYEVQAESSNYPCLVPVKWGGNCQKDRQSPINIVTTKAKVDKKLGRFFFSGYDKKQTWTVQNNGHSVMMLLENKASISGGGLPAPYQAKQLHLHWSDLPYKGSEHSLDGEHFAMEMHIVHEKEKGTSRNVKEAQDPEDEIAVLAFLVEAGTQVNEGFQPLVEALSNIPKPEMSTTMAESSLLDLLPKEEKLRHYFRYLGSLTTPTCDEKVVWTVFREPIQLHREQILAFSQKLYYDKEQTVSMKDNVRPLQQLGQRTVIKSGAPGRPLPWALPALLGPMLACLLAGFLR
Sequence of hCA III (P07451 whole entry): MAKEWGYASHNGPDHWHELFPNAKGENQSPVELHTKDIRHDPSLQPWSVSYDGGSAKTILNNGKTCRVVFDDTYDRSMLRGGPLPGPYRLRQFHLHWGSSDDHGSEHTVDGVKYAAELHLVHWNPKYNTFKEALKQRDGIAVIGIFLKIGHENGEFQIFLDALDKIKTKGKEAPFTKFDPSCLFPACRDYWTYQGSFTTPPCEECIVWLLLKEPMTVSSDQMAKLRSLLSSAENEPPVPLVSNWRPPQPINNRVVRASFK
Sequence of hCA VI (P23280 18-308): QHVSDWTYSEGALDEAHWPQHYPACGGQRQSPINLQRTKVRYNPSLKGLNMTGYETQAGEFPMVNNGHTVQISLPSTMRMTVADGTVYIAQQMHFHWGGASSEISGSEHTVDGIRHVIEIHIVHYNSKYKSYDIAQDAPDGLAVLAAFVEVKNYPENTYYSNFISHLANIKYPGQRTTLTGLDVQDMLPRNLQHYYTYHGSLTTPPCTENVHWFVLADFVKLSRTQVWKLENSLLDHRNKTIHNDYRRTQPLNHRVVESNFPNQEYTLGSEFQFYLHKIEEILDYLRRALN
Sequence of hCA XIV (Q9ULX7 16-337): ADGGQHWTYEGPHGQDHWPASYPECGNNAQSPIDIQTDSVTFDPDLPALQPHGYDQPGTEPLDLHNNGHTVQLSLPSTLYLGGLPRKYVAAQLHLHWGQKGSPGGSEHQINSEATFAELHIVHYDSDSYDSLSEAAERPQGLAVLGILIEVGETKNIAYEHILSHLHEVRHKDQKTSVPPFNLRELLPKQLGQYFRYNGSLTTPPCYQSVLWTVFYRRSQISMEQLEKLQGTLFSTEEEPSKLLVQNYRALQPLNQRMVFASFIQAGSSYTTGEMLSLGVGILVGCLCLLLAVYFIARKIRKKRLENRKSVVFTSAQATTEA
Sequence of hCA VB (Q9Y2D0 34-317): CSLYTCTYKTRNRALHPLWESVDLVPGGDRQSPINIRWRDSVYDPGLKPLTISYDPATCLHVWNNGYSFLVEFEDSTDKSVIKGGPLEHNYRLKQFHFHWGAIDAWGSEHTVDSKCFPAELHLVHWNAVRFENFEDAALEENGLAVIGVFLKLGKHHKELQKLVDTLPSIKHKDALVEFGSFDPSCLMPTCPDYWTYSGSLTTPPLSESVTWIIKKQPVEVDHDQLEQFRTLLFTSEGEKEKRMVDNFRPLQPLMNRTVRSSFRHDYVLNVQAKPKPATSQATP
Sequence of hCA XIII (Q8N1Q1 whole entry): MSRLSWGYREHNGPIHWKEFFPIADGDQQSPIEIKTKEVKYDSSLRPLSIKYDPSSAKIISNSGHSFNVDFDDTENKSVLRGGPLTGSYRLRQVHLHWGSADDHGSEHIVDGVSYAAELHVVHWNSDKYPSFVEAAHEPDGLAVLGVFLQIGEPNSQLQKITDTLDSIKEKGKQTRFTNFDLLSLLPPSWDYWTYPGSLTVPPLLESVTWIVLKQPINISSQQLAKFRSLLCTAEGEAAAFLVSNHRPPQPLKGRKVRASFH
Sequence of hCA VA (P35218 39-305): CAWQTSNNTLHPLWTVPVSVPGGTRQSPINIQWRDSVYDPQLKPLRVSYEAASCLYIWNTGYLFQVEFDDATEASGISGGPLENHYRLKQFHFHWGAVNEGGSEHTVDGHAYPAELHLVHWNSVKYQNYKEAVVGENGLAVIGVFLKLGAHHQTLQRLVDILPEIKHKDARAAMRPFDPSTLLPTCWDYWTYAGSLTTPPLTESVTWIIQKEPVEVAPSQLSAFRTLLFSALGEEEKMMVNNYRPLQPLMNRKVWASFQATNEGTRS
Sequence of hCA I (P00915 whole entry): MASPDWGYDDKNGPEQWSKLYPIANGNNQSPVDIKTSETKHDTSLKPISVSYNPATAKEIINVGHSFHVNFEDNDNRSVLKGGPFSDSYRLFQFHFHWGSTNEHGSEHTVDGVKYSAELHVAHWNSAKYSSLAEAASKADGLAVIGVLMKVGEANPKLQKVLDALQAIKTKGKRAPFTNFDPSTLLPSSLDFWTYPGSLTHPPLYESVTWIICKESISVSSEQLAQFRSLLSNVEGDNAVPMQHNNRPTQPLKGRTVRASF
Sequence of hCA XII (O43570 25-354): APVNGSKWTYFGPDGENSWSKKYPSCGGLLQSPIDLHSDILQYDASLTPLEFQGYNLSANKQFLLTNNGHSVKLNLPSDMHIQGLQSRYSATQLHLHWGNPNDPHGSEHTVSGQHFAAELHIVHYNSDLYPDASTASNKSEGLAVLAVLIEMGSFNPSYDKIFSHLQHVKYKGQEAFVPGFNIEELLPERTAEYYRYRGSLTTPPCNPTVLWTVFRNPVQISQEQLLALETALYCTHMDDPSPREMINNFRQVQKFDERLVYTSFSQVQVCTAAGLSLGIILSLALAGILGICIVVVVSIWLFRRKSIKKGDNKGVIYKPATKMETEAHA

## N#Cc1cc(Cl)cc(Oc2c(Br)ccc(CC(=O)Nc3ccc(S(N)(=O)=O)cc3Cl)c2F)c1 [VM1500A]
hCA VA
  Ki: 537 nM
hCA XIV
  Ki: 15.4 nM
hCA IX
  Ki: 72.1 nM
hCA VB
  Ki: 221 nM
hCA III
  Ki: > 100000 nM
hCA XIII
  Ki: 52.2 nM
hCA IV
  Ki: 158 nM
hCA VII
  Ki: 9.7 nM
hCA VII; from Ki values
  selectivity towards hCA VII over the majority of other hCA isoforms: 1–2 orders of magnitude
[1]; elimination of active form
  t1/2 of elimination: > 120 h
hCA VI
  Ki: 125 nM
hCA II
  Ki: 35.5 nM
hCA I
  Ki: 514 nM
hCA XII
  Ki: 62.3 nM

## CCC(=O)NS(=O)(=O)c1ccc(NC(=O)Cc2ccc(Br)c(Oc3cc(Cl)cc(C#N)c3)c2F)c(Cl)c1 [elsulfavirine]
hCA VA
  Ki: 4290 nM
hCA XIV
  Ki: 1960 nM
hCA IX
  Ki: 6650 nM
hCA VB
  Ki: 14200 nM
hCA III
  Ki: > 100000 nM
hCA III; stopped flow CO2 hydrase assay
  inhibition of hCA III (in words): virtually no inhibition
hCA XIII
  Ki: 4820 nM
hCA IV
  Ki: > 100000 nM
hCA IV; stopped flow CO2 hydrase assay
  inhibition of hCA IV (in words): virtually no inhibition
hCA VII
  Ki: 2390 nM
[1]; conversion of prodrug to active form
  t1/2 of conversion to VM1500A: ~2 h
hCA VI
  Ki: 5670 nM
hCA II
  Ki: 12500 nM
HIV; patients
  tolerability and side effects: superior tolerability and fewer side effects
HIV; treatment-naive patients
  virologic response (viral load and HIV RNA reduction): comparable to that of the patients treated with efavirenz
hCA I
  Ki: 52400 nM
